Test results reported in patent publication US9067949B2, “Benzofuro[3,2-c] pyridines and related analogs as serotonin sub-type 6 (5-HT6) modulators for the treatment of obesity, metabolic syndrome, cognition and schizophrenia” (Albany Molecular Research, Inc., priority 2011, dated 2015).
Like-named read-outs stand apart in the source and are kept apart here.

Key:
human 5-HT6 receptor = human 5-HT6 receptor (Homo sapiens (Human), UniProt P50406); assay: 5-HT6 radioligand binding assay (SPA format, [N-methyl-3H]-LSD)
human 5-HT6 receptor, sequence (P50406 whole entry): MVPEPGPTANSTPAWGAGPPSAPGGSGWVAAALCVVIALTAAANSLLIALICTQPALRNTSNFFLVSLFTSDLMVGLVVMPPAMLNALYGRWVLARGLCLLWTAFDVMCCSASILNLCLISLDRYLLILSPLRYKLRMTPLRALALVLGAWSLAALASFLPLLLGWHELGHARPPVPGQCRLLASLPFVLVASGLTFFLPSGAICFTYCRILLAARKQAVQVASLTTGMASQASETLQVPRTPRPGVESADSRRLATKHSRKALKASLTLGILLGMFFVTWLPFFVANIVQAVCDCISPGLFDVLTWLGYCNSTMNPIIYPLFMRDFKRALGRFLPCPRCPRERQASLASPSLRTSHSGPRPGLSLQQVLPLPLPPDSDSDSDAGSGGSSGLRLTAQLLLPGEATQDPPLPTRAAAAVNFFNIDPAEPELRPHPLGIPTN
Procedure, shortened: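 Human 5-HT6 receptor membranes were incubated overnight at room temperature with 10 nM [N-methyl-3H]-LSD and competitor in 50 mM Tris-HCl pH 7.5, 5 mM MgCl2, 1 mM EDTA, 4% DMSO, read by SPA. Nonspecific binding was defined with 100 μM 5-HT. IC50 came from ten-point duplicate curves; Ki via Cheng-Prusoff.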

[1] = human 5-HT6 receptor membranes, 10 nM [N-methyl-3H]-LSD, Ki by Cheng-Prusoff, read-out: human 5HT6 Ki

Compound	melting point	Ki (human 5-HT6 receptor; human 5-HT6 receptor membranes, 10 nM [N-methyl-3H]-LSD, Ki by Cheng-Prusoff, hydrochloride, read-out: human 5HT6 Ki) [nM]	Ki (human 5-HT6 receptor; [1]) [nM]	Ki (human 5-HT6 receptor) [nM]
CC1Cc2oc3c(Cl)cc(S(=O)(=O)c4ccccc4)cc3c2CN1.Cl (single isomer, unassigned; (-)) [Example 83a, (−) 6-chloro-3-methyl-8-(phenylsulfonyl)-1,2,3,4-tetrahydrobenzofuro[3,2-c]pyridine hydrochloride]	293 °C (dec.)	25		
O=S(=O)(c1ccccc1)c1cc(Cl)c2oc3c(c2c1)CC(O)CC3 (single isomer, unassigned; (-)) [Example 98, (−)-6-chloro-8-(phenylsulfonyl)-1,2,3,4-tetrahydrodibenzo[b,d]furan-2-ol]	236 to 240 °C		46	
CN1CCc2oc3ccc(S(=O)(=O)c4ccccc4)cc3c2C1.Cl [Example 27, 2-Methyl-8-(phenylsulfonyl)-1,2,3,4-tetrahydrobenzofuro[3,2c]pyridine hydrochloride]	272 °C		6.5	
Cl.O=S(=O)(c1ccccc1)c1ccc2oc3c(c2c1)CNCC3 [Example 28, 8-(Phenylsulfonyl)-1,2,3,4-tetrahydrobenzofuro[3,2-c]pyridine hydrochloride]	243 °C		19	
Cl.O=S(=O)(c1cccc(F)c1)c1ccc2oc3c(c2c1)CNCC3 [Example 29, 8-(3-Fluorophenylsulfonyl)-1,2,3,4-tetrahydrobenzofuro[3,2-c]pyridine hydrochloride]	262 to 272 °C (dec.)		16	
Cl.O=S(=O)(c1cccc(Cl)c1)c1ccc2oc3c(c2c1)CNCC3 [Example 30, 8-(3-Chlorophenylsulfonyl)-1,2,3,4-tetrahydrobenzofuro[3,2-c]pyridine hydrochloride]	245 to 252 °C (dec.)		6.2	
Cl.O=S(=O)(c1ccc(F)cc1)c1ccc2oc3c(c2c1)CNCC3 [Example 31, 8-(4-Fluorophenylsulfonyl)-1,2,3,4-tetrahydrobenzofuro[3,2-c]pyridine hydrochloride]	270 to 280 °C		43	
Cl.O=S(=O)(c1ccc(Cl)cc1)c1ccc2oc3c(c2c1)CNCC3 [Example 32, 8-(4-Chlorophenylsulfonyl)-1,2,3,4-tetrahydrobenzofuro[3,2-c]pyridine hydrochloride]	302 to 305 °C		38	
COc1ccc(S(=O)(=O)c2ccc3oc4c(c3c2)CNCC4)cc1.Cl [Example 33, 8-(4-Methoxyphenylsulfonyl)-1,2,3,4-tetrahydrobenzofuro[3,2-c]pyridine hydrochloride]	270 to 272 °C		100	
Cl.N#Cc1ccc(S(=O)(=O)c2ccc3oc4c(c3c2)CNCC4)cc1 [Example 34, 8-(4-Cyanophenylsulfonyl)-1,2,3,4-tetrahydrobenzofuro[3,2-c]pyridine hydrochloride]	295 to 301 °C (dec.)			1320
Cc1ccc(S(=O)(=O)c2ccc3oc4c(c3c2)CNCC4)cc1.Cl [Example 35, 8-(4-Methylphenylsulfonyl)-1,2,3,4-tetrahydrobenzofuro[3,2-c]pyridine hydrochloride]	265 to 270 °C		38	
Cl.Nc1ccc(S(=O)(=O)c2ccc3oc4c(c3c2)CNCC4)cc1 [Example 36, 8-(4-Aminophenylsulfonyl)-1,2,3,4-tetrahydrobenzofuro[3,2-c]pyridine hydrochloride]	305 to 314 °C (dec.)		40	
Cl.O=S(=O)(c1cc(F)cc(F)c1)c1ccc2oc3c(c2c1)CNCC3 [Example 37, 8-(3,5-Difluorophenylsulfonyl)-1,2,3,4-tetrahydrobenzofuro[3,2-c]pyridine hydrochloride]	275 to 281 °C (dec.)		339	
Cl.O=S(=O)(c1cc(Cl)cc(Cl)c1)c1ccc2oc3c(c2c1)CNCC3 [Example 38, 8-(3,5-Dichlorophenylsulfonyl)-1,2,3,4-tetrahydrobenzofuro[3,2-c]pyridine hydrochloride]	312 to 315 °C		17	
Cl.O=S(=O)(c1ccc2oc3c(c2c1)CNCC3)c1cccc2ccccc12 [Example 39, 8-(1-Naphthylsulfonyl)-1,2,3,4-tetrahydrobenzofuro[3,2-c]pyridine hydrochloride]	200 to 202 °C		5	
Cl.O=S(=O)(c1ccc2ccccc2c1)c1ccc2oc3c(c2c1)CNCC3 [Example 40, 8-(2-Naphthylsulfonyl)-1,2,3,4-tetrahydrobenzofuro[3,2-c]pyridine hydrochloride]	267 to 270 °C		21	
Cl.O=S(=O)(c1ccc2oc3c(c2c1)CNCC3)n1ccc2ccccc21 [Example 41, 8-(1H-Indol-1-ylsulfonyl)-1,2,3,4-tetrahydrobenzofuro[3,2-c]pyridine hydrochloride]	283 to 286 °C		0.58	
Cl.O=S(=O)(c1ccc2oc3c(c2c1)CNCC3)n1ccc2ccc(F)cc21 [Example 42, 8-(6-fluoro-1H-indol-1-ylsulfonyl)-1,2,3,4-tetrahydrobenzofuro[3,2-c]pyridine hydrochloride]	199 to 203 °C		1.5	
Cc1cn(S(=O)(=O)c2ccc3oc4c(c3c2)CNCC4)c2ccccc12.Cl [Example 43, 8-(3-Methyl-1H-indol-1-ylsulfonyl)-1,2,3,4-tetrahydrobenzofuro[3,2-c]pyridine hydrochloride]	293 to 296 °C		0.42	
Cl.O=S(=O)(c1ccccc1)c1cc(Cl)c2oc3c(c2c1)CNCC3 [Example 44, 6-Chloro-8-(phenylsulfonyl)-1,2,3,4-tetrahydrobenzofuro[3,2-c]pyridine hydrochloride]	290 to 294 °C		0.55	
Cl.O=S(=O)(c1cccc(F)c1)c1cc(Cl)c2oc3c(c2c1)CNCC3 [Example 47, 6-Chloro-8-(3-fluorophenylsulfonyl)-1,2,3,4-tetrahydrobenzofuro[3,2-c]pyridine hydrochloride]	276 to 278 °C		0.39	
Cl.N#Cc1cccc(S(=O)(=O)c2cc(Cl)c3oc4c(c3c2)CNCC4)c1 [Example 48, 6-Chloro-8-(3-cyanophenylsulfonyl)-1,2,3,4-tetrahydrobenzofuro[3,2-c]pyridine hydrochloride]	272 to 274 °C		12	
Cl.O=S(=O)(c1ccc(Cl)cc1)c1cc(Cl)c2oc3c(c2c1)CNCC3 [Example 49, 6-Chloro-8-(4-chlorophenylsulfonyl)-1,2,3,4-tetrahydrobenzofuro[3,2-c]pyridine hydrochloride]	282 to 284 °C		1.9	
Cl.Cn1cc(S(=O)(=O)c2cc(Cl)c3oc4c(c3c2)CNCC4)c2ccccc21 [Example 50, 6-Chloro-8-(1-methyl-1H-indol-3-ylsulfonyl)-1,2,3,4-tetrahydrobenzofuro[3,2-c]pyridine]	262 to 264 °C		0.17	
Cl.O=S(=O)(c1ccccc1)c1cc(F)c2oc3c(c2c1)CNCC3 [Example 52, 6-Fluoro-8-(phenylsulfonyl)-1,2,3,4-tetrahydrobenzofuro[3,2-c]pyridine hydrochloride]	232 to 250 °C		5.1	
